In US11478558B2, “Prostate-specific membrane antigen targeted high-affinity agents for endoradiotherapy of prostate cancer” (The Johns Hopkins University, priority 2017, dated 2022):
Like-named read-outs stand apart in the source and are kept apart here.

Tests used:
PSMA(+) PC3 PIP cells = assay: Cell uptake, cell surface binding and internalization in PSMA(+) PC3 PIP cells; type: cell-based, human
[1] = system: PSMA(+) PC3 PIP and PSMA(−) PC3 flu tumor xenografts; assay: Biodistribution of 177Lu compounds (Example 5)

O=C(O)CC[C@H](NC(=O)N[C@@H](CCCCN(Cc1ccc(Br)cc1)C(=O)CCCCNC(=O)CN1CCN(CC(=O)O)CCN(CC(=O)O)CCN(CC(=O)O)CC1)C(=O)O)C(=O)O [Ligand L1, (14S,18S)-9-(4-Bromobenzyl)-2,8,16-trioxo-1-(4,7,10-tris(carboxymethyl)-1,4,7,10-tetraazacyclododecan-1-yl)-3,9,15,17-tetraazaicosane-14,18,20-tricarboxylic acid]
Specific Cell Surface Binding (PSMA(+) PC3 PIP cells): 36.49 ± 0.50 % IA/10^6 cells
specific internalization (PSMA(+) PC3 PIP cells): 23.68 ± 0.16 % IA/10^6 cells

O=C(O)CC[C@H](NC(=O)N[C@@H](CCCCNC(=O)CCCCCCC(=O)NCCCC[C@H](NC(=O)[C@@H](CCCCNC(=O)CCCc1ccc(I)cc1)NC(=O)CN1CCN(CC(=O)O)CCN(CC(=O)O)CCN(CC(=O)O)CC1)C(=O)O)C(=O)O)C(=O)O [Ligand L14, (3S,7S,26S,29R)-38-(4-iodophenyl)-5,13,20,28,35-pentaoxo-29-(2-(4,7,10-tris(carboxymethyl)-1,4,7,10-tetraazacyclododecan-1-yl)acetamido)-4,6,12,21,27,34-hexaazaoctatriacontane-1,3,7,26-tetracarboxylic acid]
Specific Cell Surface Binding (PSMA(+) PC3 PIP cells): 53.0 ± 1.3 % IA/10^6 cells

O=C(O)CC[C@H](NC(=O)N[C@@H](CCCCNC(=O)CCCCCCC(=O)NCCCC[C@@H](NC(=O)[C@@H](Cc1ccccc1)NC(=O)[C@@H](Cc1ccc(O)c(I)c1)NC(=O)CCC(C(=O)O)N1CCN(CC(=O)O)CCN(CC(=O)O)CCN(CC(=O)O)CC1)C(=O)O)C(=O)O)C(=O)O (stereo partly shown) [PSMA I&T, reference compound]
Specific Cell Surface Binding (PSMA(+) PC3 PIP cells; Table 6): 64.5 ± 2.3 % IA/10^6 cells
specific internalization (PSMA(+) PC3 PIP cells; Table 6): 21.1 ± 0.7 % IA/10^6 cells

O=C(O)CC[C@H](NC(=O)N[C@@H](CCCCNC(=O)[C@H](Cc1ccc2ccccc2c1)NC(=O)[C@H]1CC[C@H](CNC(=O)CN2CCN(CC(=O)O)CCN(CC(=O)O)CCN(CC(=O)O)CC2)CC1)C(=O)O)C(=O)O [PSMA-617, reference compound]
Specific Cell Surface Binding (PSMA(+) PC3 PIP cells): 44.6 ± 1.0 % IA/10^6 cells
specific internalization (PSMA(+) PC3 PIP cells): 21.1 ± 0.9 % IA/10^6 cells

O=C([O-])CN1CCN(CC(=O)[O-])CCN(CC(=O)N[C@H](CCCCNC(=O)CCCc2ccc(I)cc2)C(=O)N[C@@H](CCCCNC(=O)CCCCCCC(=O)NCCCC[C@H](NC(=O)N[C@@H](CCC(=O)O)C(=O)O)C(=O)O)C(=O)O)CCN(CC(=O)[O-])CC1.[177Lu+3] [^177Lu-14]
Kidney uptake ([1]; 48 h): 17.47±4.18 % ID/g
blood uptake ([1]; 48 h): 2.48±0.44 % ID/g
initial kidney uptake ([1]; time not given): 49.49±19.55 % ID/g
fold clearance of kidney activity ([1]; to 48 h): ~3 fold

O=C([O-])CN1CCN(CC(=O)[O-])CCN(CC(=O)O)C(Cc2ccc(NC(=S)NCCCCC(=O)NCCCC[C@H](NC(=O)N[C@@H](CCC(=O)O)C(=O)O)C(=O)O)cc2)CN(CC(=O)[O-])CC1.[177Lu+3] (stereo partly shown) [^177Lu-L7]
PSMA(+) PC3 PIP tumor uptake ([1]; 2 h): 25.4±7.2 % ID/g
PSMA(+) PC3 PIP tumor uptake ([1]; 24 h post-injection): 7.0±1.5 % ID/g
PSMA(+) PC3 PIP tumor uptake ([1]; 48 h): 7.0±3.3 % ID/g
PSMA(+) PC3 PIP tumor uptake ([1]; fourth time point, time not given): 2.3±0.0 % ID/g

O=C([O-])CN1CCN(CC(=O)[O-])CCN(CC(=O)NCC2CCC(C(=O)N(CCCCC(NC(=O)NC(CCC(=O)O)C(=O)O)C(=O)O)Cc3ccc(Br)cc3)CC2)CCN(CC(=O)[O-])CC1.[177Lu+3] (stereo not shown) [^177Lu-L11]
fold lower uptake compared to 177Lu-L1 (PSMA(+) PC3 PIP cells): > 1.5 fold
